Measured values from patent US20190307843A1, “SINGLE DOSE METHODS FOR PREVENTING AND TREATING FUNGAL INFECTIONS” (Cidara Therapeutics, Inc., priority 2016, published 2019).
≈ marks a conversion by molar mass, not a printed value. Read-outs that look alike come from different tables or passages of the source.

Tests used:
[1] = format: in vivo, rat; settings: rat, in vivo
Procedure: The rats were monitored at a frequency appropriate for their clinical condition. Rat weights were recorded at least once daily to ensure animals remained within ethical limits.

[2] = system: C. albicans SC-5314 biofilms; assay: Adhesion phase biofilms (prevention), XTT metabolic activity and CSLM; format: cell-based, Candida albicans
[3] = system: C. albicans strain 529L; assay: Rat model of vulvovaginal candidiasis, vaginal lavage and tissue burden; format: in vivo, Candida albicans
[4] = system: Candida auris strains; assay: Candida auris antifungal susceptibility testing (CLSI M27-A3), 38 strains; format: cell-based; settings: for MIC: Candidozyma auris
[5] = 20 mg/kg PO Dosed Once, lavage Day 1 post infection, pre-treatment
[6] = 20 mg/kg PO Dosed Once, lavage Day 2 post infection
[7] = 20 mg/kg PO Dosed Once, lavage Day 3 post infection
[8] = 20 mg/kg PO Dosed Once, lavage Day 5 post infection
[9] = 20 mg/kg PO Dosed Once, lavage Day 7 post infection
[10] = 20 mg/kg PO Dosed Once, lavage Day 9 post infection
[11] = 20 mg/kg PO Dosed Once, terminal vaginal tissue Day +9 post infection
[12] = 20 mg/kg PO Dosed Twice, lavage Day 1 post infection, pre-treatment
[13] = 20 mg/kg PO Dosed Twice, lavage Day 2 post infection
[14] = 20 mg/kg PO Dosed Twice, lavage Day 3 post infection
[15] = 20 mg/kg PO Dosed Twice, lavage Day 5 post infection
[16] = 20 mg/kg PO Dosed Twice, lavage Day 7 post infection
[17] = 20 mg/kg PO Dosed Twice, lavage Day 9 post infection
[18] = 20 mg/kg PO Dosed Twice, terminal vaginal tissue Day +9 post infection

## OC(Cn1cncn1)(Cn1cncn1)c1ccc(F)cc1F [fluconazole]
[1]
  tolerability: well tolerated with no adverse events observed
[2]; fluconazole
  thickness of biofilms: no effect on biofilm thickness
[2]; fluconazole 1 and 4 μg/ml, 24 h
  biofilm formation by metabolic activity (XTT): did not inhibit biofilm formation
[3]; [5]
  Group Geometric mean: 3.16 × 10^3 CFU/mL
  Log Group Geometric mean: 3.50 CFU/mL
  Log reduction from vehicle control: −1.06 CFU/mL
[3]; [6]
  Group Geometric mean: 1.50 × 10^2 CFU/mL
  Log Group Geometric mean: 2.18 CFU/mL
  Log reduction from vehicle control: 1.52 CFU/mL
[3]; [7]
  Group Geometric mean: 1.00 CFU/mL
  Log Group Geometric mean: 0.00 CFU/mL
  Log reduction from vehicle control: 3.57 CFU/mL
[3]; [8]
  Group Geometric mean: 1.00 CFU/mL
  Log Group Geometric mean: 0.00 CFU/mL
  Log reduction from vehicle control: 4.22 CFU/mL
[3]; [9]
  Group Geometric mean: 1.00 CFU/mL
  Log Group Geometric mean: 0.00 CFU/mL
  Log reduction from vehicle control: 4.18 CFU/mL
[3]; [10]
  Group Geometric mean: 1.00 CFU/mL
  Log Group Geometric mean: 0.00 CFU/mL
  Log reduction from vehicle control: 4.30 CFU/mL
[3]; [11]
  Group Geometric mean: 1.00 CFU/g
  Log Group Geometric mean: 0.00 CFU/g
  Log reduction from vehicle control: 5.49 CFU/g
[3]; [12]
  Group Geometric mean: 1.04 × 10^3 CFU/mL
  Log Group Geometric mean: 3.02 CFU/mL
  Log reduction from vehicle control: −0.58 CFU/mL
[3]; [13]
  Group Geometric mean: 1.27 × 10^2 CFU/mL
  Log Group Geometric mean: 2.10 CFU/mL
  Log reduction from vehicle control: 1.59 CFU/mL
[3]; [14]
  Group Geometric mean: 1.49 CFU/mL
  Log Group Geometric mean: 0.17 CFU/mL
  Log reduction from vehicle control: 3.40 CFU/mL
[3]; [15]
  Group Geometric mean: 1.00 CFU/mL
  Log Group Geometric mean: 0.00 CFU/mL
  Log reduction from vehicle control: 4.22 CFU/mL
[3]; [16]
  Group Geometric mean: 1.00 CFU/mL
  Log Group Geometric mean: 0.00 CFU/mL
  Log reduction from vehicle control: 4.18 CFU/mL
[3]; [17]
  Group Geometric mean: 1.00 CFU/mL
  Log Group Geometric mean: 0.00 CFU/mL
  Log reduction from vehicle control: 4.30 CFU/mL
[3]; [18]
  Group Geometric mean: 1.00 CFU/g
  Log Group Geometric mean: 0.00 CFU/g
  Log reduction from vehicle control: 5.49 CFU/g
[3]; fluconazole 20 mg/kg PO once or twice, lavage Day 3 post infection
  rats having burden below the limit of detection: 11/12
[3]; fluconazole 20 mg/kg PO, lavage Day 2 post infection
  reduction in burden: about 1.6 Log10 CFU/mL
[3]; fluconazole once or twice, all rats, Day 5 post infection
  lavage burden: below the limit of detection
[3]; fluconazole once or twice, all rats, Day 9
  terminal vaginal tissue burden: below the limit of detection
[4]; 24 h, strain 1 VPCI 669/P/12
  MIC: > 128 µg/mL
[4]; 24 h, strain 2 VCPI 671/P/12
  MIC: > 128 µg/mL
[4]; 24 h, strain 3 VCPI 674/P/12
  MIC: > 128 µg/mL
[4]; 24 h, strain 4 VCPI 683/P/12
  MIC: > 128 µg/mL
[4]; 24 h, strain 5 VCPI 692/P/12
  MIC: > 128 µg/mL
[4]; 24 h, strain 6 VCPI 712/P/12
  MIC: > 128 µg/mL
[4]; 24 h, strain 7 VCPI 471/P/13
  MIC: > 128 µg/mL
[4]; 24 h, strain 8 VCPI 475/P/13
  MIC: > 128 µg/mL
[4]; 24 h, strain 9 VCPI 478/P/13
  MIC: > 128 µg/mL
[4]; 24 h, strain 10 VCPI 479/P/13
  MIC: > 128 µg/mL
[4]; 24 h, strain 11 VCPI 480/P/13
  MIC: > 128 µg/mL
[4]; 24 h, strain 12 VCPI 482/P/13
  MIC: > 128 µg/mL
[4]; 24 h, strain 13 VCPI 483/P/13
  MIC: > 128 µg/mL
[4]; 24 h, strain 14 VCPI 1130/P/13, 24 h, read-out: MIC
  MIC: 32 µg/mL (≈ 104 µM)
[4]; 24 h, strain 15 VCPI 1132/P/13
  MIC: 128 µg/mL (≈ 418 µM)
[4]; 24 h, strain 16 VCPI 1133/P/13
  MIC: > 128 µg/mL
[4]; 24 h, strain 17 VCPI 105/P/14
  MIC: 128 µg/mL (≈ 418 µM)
[4]; 24 h, strain 18 VCPI 107/P/14, 24 h, read-out: MIC
  MIC: 64 µg/mL (≈ 209 µM)
[4]; 24 h, strain 19 VCPI 510/P/14
  MIC: > 128 µg/mL
[4]; 24 h, strain 20 VCPI 511/P/14
  MIC: 128 µg/mL (≈ 418 µM)
[4]; 24 h, strain 21 VCPI 512/P/14, 24 h, read-out: MIC
  MIC: 16 µg/mL (≈ 52.2 µM)
[4]; 24 h, strain 22 VCPI 513/P/14
  MIC: > 128 µg/mL
[4]; 24 h, strain 23 VCPI 514/P/14
  MIC: > 128 µg/mL
[4]; 24 h, strain 24 VCPI 250/P/14, 24 h, read-out: MIC
  MIC: 64 µg/mL (≈ 209 µM)
[4]; 24 h, strain 25 VCPI 265/P/14
  MIC: > 128 µg/mL
[4]; 24 h, strain 26 VCPI 266/P/14
  MIC: > 128 µg/mL
[4]; 24 h, strain 27 VCPI 462/P/14
  MIC: > 128 µg/mL
[4]; 24 h, strain 28 VCPI 463/P/14
  MIC: > 128 µg/mL
[4]; 24 h, strain 29 VCPI 467/P/14
  MIC: > 128 µg/mL
[4]; 24 h, strain 30 VCPI 471a/P/14
  MIC: > 128 µg/mL
[4]; 24 h, strain 31 VCPI 478/P/14
  MIC: > 128 µg/mL
[4]; 24 h, strain 32 VCPI 518/P/14
  MIC: > 128 µg/mL
[4]; 24 h, strain 33 VCPI 550/P/14
  MIC: > 128 µg/mL
[4]; 24 h, strain 34 VCPI 714/P/14
  MIC: > 128 µg/mL
[4]; 24 h, strain 35 VCPI 717/P/14, 24 h, read-out: MIC
  MIC: 4 µg/mL (≈ 13.1 µM)
[4]; 24 h, strain 36 VCPI 1060/P/14
  MIC: > 128 µg/mL
[4]; 24 h, strain 37 VCPI 74/P/15
  MIC: > 128 µg/mL
[4]; 24 h, strain 38 VCPI 213/P/15
  MIC: > 128 µg/mL
[4]; 48 h, strain 1 VPCI 669/P/12
  MIC: > 128 µg/mL
[4]; 48 h, strain 2 VCPI 671/P/12
  MIC: > 128 µg/mL
[4]; 48 h, strain 3 VCPI 674/P/12
  MIC: 128 µg/mL (≈ 418 µM)
[4]; 48 h, strain 4 VCPI 683/P/12
  MIC: > 128 µg/mL
[4]; 48 h, strain 5 VCPI 692/P/12
  MIC: > 128 µg/mL
[4]; 48 h, strain 6 VCPI 712/P/12
  MIC: 128 µg/mL (≈ 418 µM)
[4]; 48 h, strain 7 VCPI 471/P/13
  MIC: > 128 µg/mL
[4]; 48 h, strain 8 VCPI 475/P/13, 48 h, read-out: MIC
  MIC: 64 µg/mL (≈ 209 µM)
[4]; 48 h, strain 9 VCPI 478/P/13
  MIC: 128 µg/mL (≈ 418 µM)
[4]; 48 h, strain 10 VCPI 479/P/13
  MIC: 128 µg/mL (≈ 418 µM)
[4]; 48 h, strain 11 VCPI 480/P/13
  MIC: > 128 µg/mL
[4]; 48 h, strain 12 VCPI 482/P/13
  MIC: > 128 µg/mL
[4]; 48 h, strain 13 VCPI 483/P/13
  MIC: 128 µg/mL (≈ 418 µM)
[4]; 48 h, strain 14 VCPI 1130/P/13, 48 h, read-out: MIC
  MIC: 64 µg/mL (≈ 209 µM)
[4]; 48 h, strain 15 VCPI 1132/P/13
  MIC: 128 µg/mL (≈ 418 µM)
[4]; 48 h, strain 16 VCPI 1133/P/13
  MIC: > 128 µg/mL
[4]; 48 h, strain 17 VCPI 105/P/14
  MIC: 128 µg/mL (≈ 418 µM)
[4]; 48 h, strain 18 VCPI 107/P/14
  MIC: > 128 µg/mL
[4]; 48 h, strain 19 VCPI 510/P/14
  MIC: > 128 µg/mL
[4]; 48 h, strain 20 VCPI 511/P/14
  MIC: > 128 µg/mL
[4]; 48 h, strain 21 VCPI 512/P/14
  MIC: > 128 µg/mL
[4]; 48 h, strain 22 VCPI 513/P/14
  MIC: > 128 µg/mL
[4]; 48 h, strain 23 VCPI 514/P/14
  MIC: > 128 µg/mL
[4]; 48 h, strain 24 VCPI 250/P/14
  MIC: > 128 µg/mL
[4]; 48 h, strain 25 VCPI 265/P/14
  MIC: > 128 µg/mL
[4]; 48 h, strain 26 VCPI 266/P/14
  MIC: > 128 µg/mL
[4]; 48 h, strain 27 VCPI 462/P/14
  MIC: > 128 µg/mL
[4]; 48 h, strain 28 VCPI 463/P/14
  MIC: > 128 µg/mL
[4]; 48 h, strain 29 VCPI 467/P/14
  MIC: > 128 µg/mL
[4]; 48 h, strain 30 VCPI 471a/P/14
  MIC: > 128 µg/mL
[4]; 48 h, strain 31 VCPI 478/P/14
  MIC: > 128 µg/mL
[4]; 48 h, strain 32 VCPI 518/P/14
  MIC: > 128 µg/mL
[4]; 48 h, strain 33 VCPI 550/P/14
  MIC: > 128 µg/mL
[4]; 48 h, strain 34 VCPI 714/P/14
  MIC: > 128 µg/mL
[4]; 48 h, strain 35 VCPI 717/P/14
  MIC: > 128 µg/mL
[4]; 48 h, strain 36 VCPI 1060/P/14
  MIC: > 128 µg/mL
[4]; 48 h, strain 37 VCPI 74/P/15
  MIC: > 128 µg/mL
[4]; 48 h, strain 38 VCPI 213/P/15
  MIC: > 128 µg/mL
[4]; of 38 C. auris isolates
  number of resistant isolates: 38
